pEC50: −log10 of the molar value.
target: T1, human CB2R (Homo sapiens, UniProt P34972); assay: CB2R mediated modulation of cAMP synthesis; format: cell-based
T1 construct: host or cells: CHO cells
Description: B. CB2R Mediated Modulation of cAMP Synthesis:
Compounds of the invention were evaluated for their CB2 agonist or inverse agonistic activity in accordance with the following experimental method.
CHO cells expressing human CB2R (Euroscreen) were plated at a density of 5000 cells per well in 384 well plates and incubated overnight at 37° C. After removing the media, the cells were treated with test compounds diluted in stimulation buffer containing 1 mM IBMX, 0.25% BSA and 10 uM Forskolin. The assay was incubated for 30 minutes at 37° C. Cells were lysed and the cAMP concentration was measured using DiscoverX-XS cAMP kit, following the manufacturer's protocol. In this setting, agonists will decrease forskolin induced production of cAMP while inverse agonists will further increase forskolin induced production of cAMP. EC50 of agonists were calculated as follows. The maximal amount of cAMP produced by forskolin compared to the level of cAMP inhibited by 1 uM CP55940 is defined as 100%. The EC50 value of each test compound was determined as the concentration at which 50% of the forskolin-stimulated cAMP synthesis was inhibited. Data was analyzed using a four-parameter logistic model. (Model 205 of XLfit 4.0).

T1 sequence (P34972 whole entry): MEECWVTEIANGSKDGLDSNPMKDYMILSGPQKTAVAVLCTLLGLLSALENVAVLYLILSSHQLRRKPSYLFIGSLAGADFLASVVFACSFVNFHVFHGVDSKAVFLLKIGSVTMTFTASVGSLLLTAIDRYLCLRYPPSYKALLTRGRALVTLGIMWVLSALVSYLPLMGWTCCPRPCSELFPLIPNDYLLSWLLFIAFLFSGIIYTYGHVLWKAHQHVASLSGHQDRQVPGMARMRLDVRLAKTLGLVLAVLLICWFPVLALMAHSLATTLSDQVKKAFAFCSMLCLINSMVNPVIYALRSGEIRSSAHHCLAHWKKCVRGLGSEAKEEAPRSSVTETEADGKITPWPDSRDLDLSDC

**Q.** `CC(C)(NC1CCOCC1)C(=O)Nc1nc(-c2ccccc2)n[nH]1` [Example 42, 2-Methyl-N-(5-phenyl-2H-1,2,4-triazol-3-yl)-2-(tetrahydro-pyran-4-ylamino)-propionamide] was tested. Which pEC50 did it give?
**A.** 6.59

**Q.** How did the pEC50 turn out when `CC(C)(Nc1ccc(C(F)(F)F)cc1)C(=O)Nc1cc(C(C)(C)C)no1` [Example 43, N-(3-tert-Butyl-isoxazol-5-yl)-2-methyl-2-(4-trifluoromethyl-phenylamino)-propionamide] was run?
**A.** 8.96

**Q.** How did the pEC50 turn out when `CC(C)(Nc1ccc(C(F)(F)F)cn1)C(=O)Nc1cc(C(C)(C)C)no1` [Example 46, N-(3-tert-Butyl-isoxazol-5-yl)-2-methyl-2-(5-trifluoromethyl-pyridin-2-ylamino)-propionamide] was run?
**A.** 9.11

**Q.** How did the pEC50 turn out when `CC(C)(Nc1ccc(C(F)(F)F)cn1)C(=O)Nc1cc(C(C)(C)C)on1` [Example 47, N-(5-tert-Butyl-isoxazol-3-yl)-2-methyl-2-(5-trifluoromethyl-pyridin-2-ylamino)-propionamide] was run?
**A.** 7.70

**Q.** `CN(C(C)(C)C(=O)Nc1cc(C(C)(C)C)on1)S(=O)(=O)c1ccc(Cl)cc1` [Example 48, N-(5-tert-Butyl-isoxazol-3-yl)-2-[(4-chloro-benzenesulfonyl)-methyl-amino]-2-methyl-propionamide] was tested. Which pEC50 did it give?
**A.** 9.44

**Q.** `CN(C(C)(C)C(=O)Nc1cc(C(C)(C)C)on1)S(=O)(=O)c1ccc(F)cc1` [Example 49, N-(5-tert-Butyl-isoxazol-3-yl)-2-[(4-fluoro-benzenesulfonyl)-methyl-amino]-2-methyl-propionamide] was tested. Which pEC50 did it give?
**A.** 9.89

**Q.** How did the pEC50 turn out when `CN(C(=O)c1ccc(Cl)cc1)C(C)(C)C(=O)Nc1cc(C(C)(C)C)on1` [Example 50, N-[1-(5-tert-Butyl-isoxazol-3-ylcarbamoyl)-1-methyl-ethyl]-4-chloro-N-methyl-benzamide] was run?
**A.** 6.91

**Q.** `CN(C(=O)N1CCS(=O)(=O)CC1)C(C)(C)C(=O)Nc1cc(C(C)(C)C)on1` [Example 51, 1,1-Dioxo-1λ6-thiomorpholine-4-carboxylic acid [1-(5-tert-butyl-isoxazol-3-ylcarbamoyl)-1-methyl-ethyl]-methyl-amide] was tested. Which pEC50 did it give?
**A.** 7.41

— patent US8957063B2, “Amine and ether compounds which modulate the CB2 receptor” (priority 2008, dated 2015)
